Results on three molecules are retold here after US8431554B2, “Compound showing anti-inflammatory activity and antiviral activity, pharmaceutical compositions comprising the same, a process for obtaining the same and use of the same in the treatment of epidemic keratoconjunctivites and herpetic stromal keratis” (priority 2007, dated 2013).

Structures are written as SMILES.

The test system of data set [1] is strain KOS of HSV-1 (herpetic stromal keratitis). The experiment in a line: Murine model of herpetic stromal keratitis (HK) induced by HSV-1. The format is in vivo, mice. The settings on record: for incidence of HK upon completion of the period of disease / severity of lesions versus non-treated infected mice / incidence of HK (mice with signs of keratitis): treated days 1, 2, 3 p.i.; for incidence of HK upon completion of the period of disease / incidence of HK (mice with signs of keratitis): FIG. 1A; for severity of lesions versus non-treated infected mice: FIG. 1B. On the procedure:
To determine if the treatment with compound I, after viral inoculation, affected the signs of HK, male mice of 6-8 weeks were anesthetized with ketamine/xylazine intraperitoneally and infected with the strain KOS of HSV-1 in the right corneas, previously scrapped with a needle. One group of animals was treated with buffered saline solution (PBS) (control of disease), while the rest were treated topically with a concentration of 40 μM of compound I three times a day. Also, groups of animals to control the antiviral activity of aciclovir (ACV) and anti-inflammatory activity of dexamethasone (DEX) were included, both drugs were commercially available.
It was determined the incidence of the disease as well as the degree of severity of the lesions and evolution of HK was determined under a magnifying glass during 15 days. The diagnosis of the disease is based on the density of inflammatory infiltrates, lengthening of vessels with corneal invasion (neovascularization), and the presence of surface ulcers. Therefore, mice presenting swollen eyelids (blepharitis), neovascularization in more than 10% of the corneal surface, and corneal opacity with or without signs of necrosis, were considered sick of HK.
The signs of ocular signs are gradually developed from the days 6-7 post-infection (p.i.) and the percentage of animals with HK and severity of the signs of the disease on days 3, 8, and 15 p.i were recorded (FIG. 1 y 2).
To evaluate the antiviral activity of compound I, the compound was applied to a group of animals on days 1, 2 y 3 p.i., the days when multiplication of HSV-1 in the cornea occurs. Also, other groups of mice were treated with ACV—as a positive control of antiviral activity—and with DEX.
To evaluate the anti-inflammatory activity of compound I, the compound was applied on days 6, 7 and 8 p.i., the time when HK manifests.

Data set [2] is described as follows: Cytotoxicity used for the adenovirus selectivity index. Type of data set: cell-based. The settings on record: human; IOBA-NHC. As for the experimental part: The antiviral selectivity index of Compound I for adenovirus is of 31.6. Said index was determined as a quotient between its viral activity (=63.2) and its cytotoxicity (=2).
The antiviral selectivity index of Compound II for adenovirus is of […] Said index was determined as a quotient between its viral activity (=62.6) and its cytotoxicity (=4).

In the next data set the test system is strain KOS of HSV-1. Nature of the data set: Anti-HSV-1 activity, virus yield in infected IOBA-NHC cells titrated in Vero cells. The format is cell-based. The conditions noted are these: for EC50: Human alphaherpesvirus 1, Vero, HSV-1 KOS, m.i. 0.2, IOBA-NHC cells, 24 h, read-out: CE50 (Effective concentration 50); for IS, Selectivity index (CC50/CE50): anti-HSV-1, IOBA-NHC cells. As for the experimental part: To evaluate the antiviral activity of the compounds I and II, monolayers of cells IOBA-NHC grown in microplates of 24 wells were infected with the strain KOS of HSV-1 at a multiplicity of infection (m.i.) of 0.2, and treated with different concentrations of the compounds. Infected cells not treated were used as control of the infection. After incubating at 37° C. during 24 h, the free and cell associated virus was harvested and titrated in Vero cells by plating in semisolid medium. It was observed an inhibition of dose-dependent viral replication in the cells treated with the compounds I and II (Table 1).

For a further data set, the system named is adenovirus (ADV-5). Nature of the data set: Antiviral activity against adenovirus in infected IOBA-NHC cultures. Type of data set: cell-based. The conditions noted are these: ADV-5, IOBA-NHC; for viral activity (used for selectivity index): multiplicity of infection of 1; for inhibition of adenovirus replication, in words: multiplicity of infection of 1, different concentrations.

The subject of the next data set is mice. The experiment in a line: Toxicity assay in vivo. The settings on record: 40 μM, three times a day, three consecutive days. On the procedure:
A toxicity assay in vivo was performed.

For data set [3], the system named is strain KOS of HSV-1 (herpetic stromal keratitis). The experiment in a line: Murine model of herpetic stromal keratitis (HK) induced by HSV-1. The format is in vivo, mice. The settings on record: treated days 6, 7, 8 p.i.; read on day 10 p.i.; FIG. 2A.
Data set [4] in a line: Cytotoxicity, colorimetric MTT assay in IOBA-NHC cells. The format is cell-based. The settings on record: human, IOBA-NHC human conjunctival cells, confluent monolayers, 24 hours at 37° C., read-out: CC50 (Cytotoxyc concentration 50). As for the experimental part:
The activity anti-HSV-1 of the compounds I and II was evaluated in human conjunctive cells (IOBA-NHC). First, it was determined cytotoxicity of the same for cells IOBA-NHC using the colorimetric assay with MTT, based on the cleavage of the tetrazolium salt MTT (3-(4,5-dimethylthiazol-2-yl)-2,5-diphenyl tetrazolium […]) by the mitochondrial enzyme succinate dehydrogenase, to obtain a blue product, formazan (Denizot F, Lang R. Rapid colorimetric assay for cell growth and survival. Journal of Immunological Methods 1986; 89:271-77). The compounds dissolved in ethanol are added to confluent monolayers of cells IOBA-NHC grown in microplates of 96 wells, in concentrations of up to 600 μM, according to the compound. The ethanol concentration was lower than 1%. After 24 hours of incubation at 37° C., the absorbency of each well was read at 570 nm, with a reference wave length of 630 nm. It was determined the 50% cytotoxyc concentration (CC50) as the concentration of compound that reduces absorbency to 50% in relation with the control not treated (Table 1).

Data set [5] relates to alpha-TNF production in macrophages J774. Nature of the data set: Inhibition of alpha-TNF production in LPS-treated J774 macrophages. The format is cell-based. The conditions noted are these: different concentrations. From the text:
Also, compound I has anti-inflammatory activity.
Also, said compound II has anti-inflammatory activity.

Where [6] appears, read: treated days 6, 7, 8 p.i., FIG. 2A.

For `Nc1nc2c(ncn2COCCO)c(=O)[nH]1` [ACV, aciclovir, reference compound], in data set [1], the “incidence of HK upon completion of the period of disease” value is given as 30% and the “severity of lesions versus non-treated infected mice” value is “significant differences”. Also, the “incidence of HK (mice with signs of keratitis)” value in data set [1] (read on day 8 p.i.) came out at 10%. For the same molecule, in data set [1] (setting [6]), the “HK signs, in words” value is “had no effect on the improvement of disease signs”.
In data set [2], `CC[C@@H](C(C)C)[C@H](O)[C@@H](O)[C@@H](C)[C@H]1CC[C@H]2[C@@H]3CCC4=CC(=O)CC[C@]4(C)[C@H]3CC[C@]12C` [Compound I, (22S,23S)-22,23-dihydroxystigmast-4-en-3-one] yielded a cytotoxicity of 2. For the same molecule, in the data set with strain KOS of HSV-1, the EC50 worked out at 5.4 µM and the “IS, Selectivity index (CC50/CE50)” value was 13.2. Also, in the data set with adenovirus (ADV-5), the “antiviral selectivity index for adenovirus” value stood at 31.6; the “viral activity (used for selectivity index)” value is 63.2; the “inhibition of adenovirus replication, in words” value is listed as “inhibits virus replication according to the concentration of compound used”. Also, in the data set with mice, the “toxic effects in vivo” value is given as “absence of toxic effects”. The “mice with signs of the disease (HK)” value in data set [3] stood at 40%. In addition, in data set [1], the “incidence of HK upon completion of the period of disease” value is on record as 40% and the “severity of lesions versus non-treated infected mice” value is reported as “significant differences”. For the same molecule, the “incidence of HK (mice with signs of keratitis)” value in data set [1] (read on day 8 p.i.) turned out to be 30%. In addition, in data set [1] (setting [6]), the “HK signs, in words” value is “reduced significantly”. Also, the “severity of the signs of keratitis versus infection control” value in data set [1] (treated days 6, 7, 8 p.i., FIG. 2B) is “lower”. Besides, the “mice with signs of the disease (HK)” value in data set [1] (treated days 6, 7, 8 p.i., read on day 8 p.i., FIG. 2A) is recorded as 30%. Besides, the CC50 at 24 h in data set [4] worked out at 71.2 µM. In data set [5], the “inhibition of alpha-TNF production, in words” value is recorded as “inhibits production of alpha-TNF”.
In data set [2], `CC[C@@H](C(C)C)[C@H](O)[C@@H](O)[C@@H](C)[C@H]1CC[C@H]2[C@@H]3CCC4=CC(=O)C=C[C@]4(C)[C@H]3CC[C@]12C` [Compound II, (22S,23S)-22,23-dihydroxystigmasta-1,4-dien-3-one] displayed a cytotoxicity of 4. For the same molecule, in the data set with strain KOS of HSV-1, the EC50 is 17.9 µM and the “IS, Selectivity index (CC50/CE50)” value was 3.9. In the data set with adenovirus (ADV-5), the “antiviral selectivity index for adenovirus” value turned out to be 15.67; the “viral activity (used for selectivity index)” value worked out at 62.6; the “inhibition of adenovirus replication, in words” value was “inhibits virus replication according to the concentration of compound used”. The CC50 at 24 h in data set [4] was found to be 70.8 µM. For the same molecule, in data set [5], the “inhibition of alpha-TNF production, in words” value is given as “inhibits production of alpha-TNF”.
